The target of test [1] is T1, Trace amine-associated receptor 1 (Homo sapiens) (UniProt Q96RJ0).
T1 sequence (whole entry): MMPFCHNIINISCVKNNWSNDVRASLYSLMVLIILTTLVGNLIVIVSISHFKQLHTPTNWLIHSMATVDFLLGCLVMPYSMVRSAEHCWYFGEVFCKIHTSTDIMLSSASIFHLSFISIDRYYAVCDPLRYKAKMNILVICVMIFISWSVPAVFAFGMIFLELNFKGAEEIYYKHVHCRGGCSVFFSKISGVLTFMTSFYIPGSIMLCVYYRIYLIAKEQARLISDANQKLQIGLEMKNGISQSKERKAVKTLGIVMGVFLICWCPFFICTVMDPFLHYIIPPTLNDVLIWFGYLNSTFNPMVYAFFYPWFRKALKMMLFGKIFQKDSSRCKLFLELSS
The experiment in a line: Antagonist activity at human TAAR1 receptor expressed in HEK293T cells cotransfected with beta-2 receptor assessed as inhibition of beta-PEA-induced cAMP production at 100 uM by BRET assay. Conditions: HEK-293T. Type of test: functional, cell-based.

The target of test [2] is T1, Trace amine-associated receptor 1 (Homo sapiens). The test can be described thus: Agonist activity at human TAAR1 receptor expressed in HEK293T cells cotransfected with beta-2 receptor assessed as cAMP production by BRET assay relative to beta-PEA. In kind it is functional, cell-based. Conditions: HEK-293T. On the set-up: concentration or dose not given beside the values. For orientation: cAMP levels reflect the balance of adenylyl cyclase and phosphodiesterase activity.

Test [3] shares this target. The experiment in a line: Agonist activity at human TAAR1 receptor expressed in HEK293T cells cotransfected with beta-2 receptor assessed as cAMP production at 100 uM by BRET assay. The settings on record: HEK-293T. Type of test: functional, cell-based.
Test [4] concerns the target T2, Trace amine-associated receptor 1 (Homo sapiens, UniProt Q96RJ0).
T2 sequence (Q96RJ0 whole entry): T1 sequence (whole entry)
The experiment in a line: Agonist activity at human TAAR1 receptor expressed in HEK293T cells cotransfected with beta-2 receptor assessed as cAMP production by BRET assay. Type of test: functional, cell-based, HEK-293T.

Each structure is given as a SMILES string. The source made the active and inactive calls. No cut-off for these calls is given here.

With `COc1cccc(/C=N/NC(=N)N)c1`, the result in test [1] and in test [3] was Active. The Activity in test [2] is 24%. Take `Cn1c(C2CCCCN2)nc2ccccc21` (centres undefined): in test [4], the EC50 is over 100 µM. The Activity in test [2] is 38.4%. In the case of `Cn1c(C2CCCN2)nc2ccccc21` (centres undefined), the half-maximal effective concentration (EC50) in test [4] was 18.1 µM. Moreover, in test [2], the Activity stood at 55.8%. For the same molecule, in test [3], the outcome was Active. Regarding `C#CCN[C@H](C)Cc1ccccc1`, the outcome in test [3] was Active. Regarding `N=C(N)c1cccc(COc2ccccc2)c1`, in test [1], the outcome was Active. As to `c1ccc2sc(C3CCCN3)nc2c1` (centres undefined), the EC50 in test [4] was over 100 µM. Besides, the Activity in test [2] is 42.9%.

`Fc1ccc2c(CCNCc3cnn(-c4ccccc4)c3)c[nH]c2c1`: the outcome in test [1] was Active. For `N=C(N)N/N=C/c1cccc(OCc2ccccc2)c1`, the Activity in test [2] turned out to be 75%. Turning to `N=C(N)N/N=C/c1cccc(Br)c1`, in test [2], the Activity was -5.4%. On to `N=C(N)N/N=C/c1ccc2c(c1)OCO2`, for which the EC50 in test [4] was over 100 µM. Further, in test [2], the Activity stood at 6.9%.

With `CCC(=O)/N=C(\N)Nc1nc2ccccc2o1`, the result in test [1] was Active. For the molecule `CN(Cn1ncc2cc([N+](=O)[O-])ccc21)[C@@H]1CCc2ccccc21`, the result in test [3] was Active. Turning to `CCn1c(C2CCCN2)nc2ccccc21` (centres undefined), in test [4], the 50% effective concentration (EC50) is over 100 µM. The Activity in test [2] worked out at 22.1%. As to `N=C(N)N/N=C/c1ccccc1`, the EC50 in test [4] came to 0.17 µM. For the same molecule, the Activity in test [2] came out at 85.5%.

With `COc1ccc2[nH]cc(CN(C)C)c2c1`, the outcome in test [3] was Active. On to `C=CCn1cc(CN[C@H](C)Cn2ccc3ccccc32)c(C)n1`, for which the result in test [1] was Active. With `C[C@@H](CNCCO)c1ccccc1`, in test [3], the outcome was Active. Regarding `Cn1c(CN)nc2ccccc21`, the EC50 in test [4] was over 100 µM. Moreover, the Activity in test [2] was 21.6%. As for `NCCc1ccccc1` [PHENETHYLAMINE], in test [4], the EC50 came to 0.11 µM.

Turning to `Cc1cccc(CCN(C)C[C@H](O)c2ccccc2)c1`, the concentration for a half-maximal effect (EC50) in test [4] is 51.6 µM. In addition, in test [2], the Activity is 67.5%. Also, the result in test [3] was Active. Consider `CC(C)n1c(C2CCCN2)nc2ccccc21` (centres undefined), for which the EC50 in test [4] was 12.1 µM. Besides, the Activity in test [2] is 43.4%. Turning to `NC(N)=N/N=C/c1cccc(OCc2ccccc2)c1`, in test [4], the concentration for a half-maximal effect (EC50) was over 100 µM. Turning to `Clc1ccc(CNCc2ccc(Cn3cncn3)cc2)c(Cl)c1`, the result in test [1] was Active.

In the case of `N=C(N)N/N=C1\CCCc2ccccc21`, the result in test [1] was Active. As for `NC(N)=N/N=C/c1cccc(Br)c1`, in test [4], the concentration for a half-maximal effect (EC50) is over 100 µM. Turning to `c1ccc2c(c1)nnn2C[C@H]1CCCN1`, in test [3], the outcome was Active. As for `COc1cccc(/C=N/N=C(N)N)c1`, in test [4], the EC50 stood at 1.23 µM. As for `CN(Cc1ccc(Br)cc1)Cc1cccc(C(N)=O)c1`, in test [1], the result was Active.

As to `CNCc1nc2ccccc2n1C(F)F`, in test [3], the result was Active.

For the molecule `N=C(N)N/N=C/c1c(Cl)cccc1Cl` [GUANABENZ], the EC50 in test [4] was determined as 0.09 µM. Moreover, the Activity in test [2] is 35.5%.

By EC50 is commonly meant the concentration needed to bring the measured effect to its halfway point.

(Values after ChEMBL document CHEMBL3769363, “Discovery of trace amine-associated receptor 1 ligands by molecular docking screening against a homology model” (Medchemcomm, 2015).)
